Reference: PMC10363510 (Plant Communications, 2023)

Test system: SiAT1
Experiment: HPLC product assay, Michaelis-Menten fit
Format: biochemical, Sesamum indicum
Conditions: read-out: apparent Km; 75 mM salidroside, 50 mM Tris-HCl pH 7.4, 30°C

Structure (SMILES)	Km
CC(C)(COP(=O)(O)OP(=O)(O)OC[C@H]1O[C@@H](n2cnc3c(N)ncnc32)[C@H](O)[C@@H]1OP(=O)(O)O)[C@@H](O)C(=O)NCCC(=O)NCCSC(=O)/C=C/c1ccc(O)c(O)c1 [caffeoyl-CoA]	1.13 ± 0.42 µM
CC(C)(COP(=O)(O)OP(=O)(O)OC[C@H]1O[C@@H](n2cnc3c(N)ncnc32)[C@H](O)[C@@H]1OP(=O)(O)O)[C@@H](O)C(=O)NCCC(=O)NCCSC(=O)/C=C/c1ccc(O)cc1 [p-coumaroyl-CoA]	1.66 ± 0.39 µM
